According to ChEMBL document CHEMBL3580659, “One-pot multicomponent synthesis of indole incorporated thiazolylcoumarins and their antibacterial, anticancer and DNA cleavage studies” (2015):

Assays:
Assay type in all cases: functional
MCF7 [1] = assay: Cytotoxicity against human MCF7 cells assessed as cell growth level at 10 uM after 48 hrs by sulforhodamine B assay
A498 [2] = assay: Cytotoxicity against human A498 cells assessed as cell growth level at 100 uM after 48 hrs by sulforhodamine B assay
SR = assay: Cytotoxicity against human SR cells assessed as cell growth level at 1 uM after 48 hrs by sulforhodamine B assay
OVCAR-4 = assay: Cytotoxicity against human OVCAR4 cells assessed as cell growth level at 100 uM after 48 hrs by sulforhodamine B assay
SNB-19 [3] = assay: Cytotoxicity against human SNB19 cells after 48 hrs by sulforhodamine B assay; conditions: SNB-19, 48 h
SF-539 = assay: Cytotoxicity against human SF539 cells assessed as cell growth level at 10 uM after 48 hrs by sulforhodamine B assay
DU-145 [4] = assay: Cytotoxicity against human DU145 cells assessed as cell growth level at 10 nM after 48 hrs by sulforhodamine B assay
Malme-3M [5] = assay: Cytotoxicity against human MALME-3M cells assessed as cell growth level at 10 nM after 48 hrs by sulforhodamine B assay
UO-31 = assay: Cytotoxicity against human UO31 cells assessed as cell growth level at 100 nM after 48 hrs by sulforhodamine B assay
NCI-H226 [6] = assay: Cytotoxicity against human NCI-H226 cells assessed as cell growth level at 1 uM after 48 hrs by sulforhodamine B assay
LOX IMVI = assay: Cytotoxicity against human LOXIMVI cells assessed as cell growth level at 100 uM after 48 hrs by sulforhodamine B assay
Malme-3M [7] = assay: Cytotoxicity against human MALME-3M cells assessed as cell growth level at 10 uM after 48 hrs by sulforhodamine B assay
SNB-19 [8] = assay: Cytotoxicity against human SNB19 cells assessed as cell growth level at 100 uM after 48 hrs by sulforhodamine B assay
A498 [9] = assay: Cytotoxicity against human A498 cells assessed as cell growth level at 10 nM after 48 hrs by sulforhodamine B assay
U-251 = assay: Cytotoxicity against human U251 cells assessed as cell growth level at 10 uM after 48 hrs by sulforhodamine B assay
MCF7 [10] = assay: Cytotoxicity against human MCF7 cells assessed as cell growth level at 10 nM after 48 hrs by sulforhodamine B assay
SF-268 = assay: Cytotoxicity against human SF268 cells assessed as cell growth level at 100 nM after 48 hrs by sulforhodamine B assay
MOLT-4 [11] = assay: Cytotoxicity against human MOLT4 cells assessed as cell growth level at 1 uM after 48 hrs by sulforhodamine B assay
NCI-H460 = assay: Cytotoxicity against human NCI-H460 cells assessed as cell growth level at 10 uM after 48 hrs by sulforhodamine B assay
IGROV-1 = assay: Cytotoxicity against human IGROV1 cells after 48 hrs by sulforhodamine B assay; conditions: IGROV-1, 48 h
HCC 2998 = assay: Cytotoxicity against human HCC2998 cells assessed as cell growth level at 100 nM after 48 hrs by sulforhodamine B assay
NCI-H322M = assay: Cytotoxicity against human NCI-H322M cells assessed as cell growth level at 100 uM after 48 hrs by sulforhodamine B assay
K562 = assay: Cytotoxicity against human K562 cells after 48 hrs by sulforhodamine B assay; conditions: K562, 48 h
DU-145 [12] = assay: Cytotoxicity against human DU145 cells assessed as cell growth level at 1 uM after 48 hrs by sulforhodamine B assay
A498 [13] = assay: Cytotoxicity against human A498 cells assessed as cell growth level at 100 nM after 48 hrs by sulforhodamine B assay
OVCAR-8 [14] = assay: Cytotoxicity against human OVCAR8 cells assessed as cell growth level at 100 uM after 48 hrs by sulforhodamine B assay
HT-29 = assay: Cytotoxicity against human HT-29 cells assessed as cell growth level at 10 nM after 48 hrs by sulforhodamine B assay
OVCAR-8 [15] = assay: Cytotoxicity against human OVCAR8 cells after 48 hrs by sulforhodamine B assay; conditions: OVCAR-8, 48 h
MCF7 [16] = assay: Cytotoxicity against human MCF7 cells assessed as cell growth level at 100 uM after 48 hrs by sulforhodamine B assay
SW-620 = assay: Cytotoxicity against human SW620 cells assessed as cell growth level at 10 uM after 48 hrs by sulforhodamine B assay
HCT-15 = assay: Cytotoxicity against human HCT15 cells assessed as cell growth level at 100 uM after 48 hrs by sulforhodamine B assay
Malme-3M [17] = assay: Cytotoxicity against human MALME-3M cells assessed as cell growth level at 100 uM after 48 hrs by sulforhodamine B assay
SF-295 = assay: Cytotoxicity against human SF295 cells assessed as cell growth level at 100 nM after 48 hrs by sulforhodamine B assay
SK-MEL-2 = assay: Cytotoxicity against human SK-MEL-2 cells after 48 hrs by sulforhodamine B assay; conditions: SK-MEL-2, 48 h
M14 = assay: Cytotoxicity against human M14 cells assessed as cell growth level at 100 uM after 48 hrs by sulforhodamine B assay
RXF 393 = assay: Cytotoxicity against human RXF393 cells assessed as cell growth level at 100 uM after 48 hrs by sulforhodamine B assay
NCI-H226 [18] = assay: Cytotoxicity against human NCI-H226 cells after 48 hrs by sulforhodamine B assay; conditions: NCI-H226, 48 h
786-0 = assay: Cytotoxicity against human 786-0 cells assessed as cell growth level at 100 nM after 48 hrs by sulforhodamine B assay
MOLT-4 [19] = assay: Cytotoxicity against human MOLT4 cells assessed as cell growth level at 100 nM after 48 hrs by sulforhodamine B assay
[20] = read-out: LC50 (the source's name)
[21] = read-out: pLC50 (the source's name) (converted)

**Q.** `O=c1oc2ccccc2cc1-c1csc(N/N=C/c2c[nH]c3ccccc23)n1` was tested. Which Activity (MCF7 [1]) did it give?
**A.** 8.91%

**Q.** And the Activity (A498 [2])?
**A.** -53%

**Q.** And the Activity (SR)?
**A.** 81%

**Q.** And the Activity (OVCAR-4)?
**A.** -24%

**Q.** What about the GI50 (SNB-19 [3]; read-out: GI50) of the same compound?
**A.** 3.39 µM

**Q.** What about the CC50 (SNB-19 [3]; [20]) of the same compound?
**A.** > 100 µM

**Q.** What about the TGI (SNB-19 [3]; read-out: TGI) of the same compound?
**A.** 62.1 µM

**Q.** And the GI50 (SNB-19 [3]; read-out: pGI50 (converted))?
**A.** 3.39 µM

**Q.** And the CC50 (SNB-19 [3]; [21])?
**A.** > 100 µM

**Q.** And the TGI (SNB-19 [3]; read-out: pTGI (converted))?
**A.** 61.7 µM

**Q.** And the Activity (SF-539)?
**A.** 0.41%

**Q.** And the Activity (DU-145 [4])?
**A.** 95%

**Q.** And the Activity (Malme-3M [5])?
**A.** 100%

**Q.** What about the Activity (UO-31) of the same compound?
**A.** 91%

**Q.** What about the Activity (NCI-H226 [6]) of the same compound?
**A.** 101%

**Q.** And the Activity (LOX IMVI)?
**A.** -45%

**Q.** What about the Activity (Malme-3M [7]) of the same compound?
**A.** -10.02%

**Q.** And the Activity (SNB-19 [8])?
**A.** -44%

**Q.** And the Activity (A498 [9])?
**A.** 95%

**Q.** What about the Activity (U-251) of the same compound?
**A.** -6.38%

**Q.** What about the Activity (MCF7 [10]) of the same compound?
**A.** 98%

**Q.** And the Activity (SF-268)?
**A.** 88%

**Q.** And the Activity (MOLT-4 [11])?
**A.** 20%

**Q.** And the Activity (NCI-H460)?
**A.** 5.79%

**Q.** And the GI50 (IGROV-1; read-out: GI50)?
**A.** 1.54 µM

**Q.** And the CC50 (IGROV-1; [20])?
**A.** > 100 µM

**Q.** And the TGI (IGROV-1; read-out: TGI)?
**A.** 4.7 µM

**Q.** And the GI50 (IGROV-1; read-out: pGI50 (converted))?
**A.** 1.55 µM

**Q.** What about the CC50 (IGROV-1; [21]) of the same compound?
**A.** > 100 µM

**Q.** And the TGI (IGROV-1; read-out: pTGI (converted))?
**A.** 4.68 µM

**Q.** And the Activity (HCC 2998)?
**A.** 97%

**Q.** What about the Activity (NCI-H322M) of the same compound?
**A.** -10%

**Q.** What about the GI50 (K562; read-out: GI50) of the same compound?
**A.** 3.18 µM

**Q.** What about the LC50 (K562; read-out: LC50) of the same compound?
**A.** > 100 µM

**Q.** And the TGI (K562; read-out: TGI)?
**A.** 10.4 µM

**Q.** What about the GI50 (K562; read-out: pGI50 (converted)) of the same compound?
**A.** 3.16 µM

**Q.** What about the LC50 (K562; read-out: pLC50 (converted)) of the same compound?
**A.** > 100 µM

**Q.** And the TGI (K562; read-out: pTGI (converted))?
**A.** 10.5 µM

**Q.** What about the Activity (DU-145 [12]) of the same compound?
**A.** 80%

**Q.** And the Activity (A498 [13])?
**A.** 96%

**Q.** What about the Activity (OVCAR-8 [14]) of the same compound?
**A.** -8%

**Q.** What about the Activity (HT-29) of the same compound?
**A.** 106%

**Q.** And the GI50 (OVCAR-8 [15]; read-out: GI50)?
**A.** 1.9 µM

**Q.** What about the CC50 (OVCAR-8 [15]; [20]) of the same compound?
**A.** > 100 µM

**Q.** And the TGI (OVCAR-8 [15]; read-out: TGI)?
**A.** 4.56 µM

**Q.** And the GI50 (OVCAR-8 [15]; read-out: pGI50 (converted))?
**A.** 1.91 µM

**Q.** And the CC50 (OVCAR-8 [15]; [21])?
**A.** > 100 µM

**Q.** And the TGI (OVCAR-8 [15]; read-out: pTGI (converted))?
**A.** 4.57 µM

**Q.** And the Activity (MCF7 [16])?
**A.** -60%

**Q.** What about the Activity (SW-620) of the same compound?
**A.** 17.5%

**Q.** And the Activity (HCT-15)?
**A.** -48%

**Q.** And the Activity (Malme-3M [17])?
**A.** -67%

**Q.** And the Activity (SF-295)?
**A.** 97%

**Q.** What about the GI50 (SK-MEL-2; read-out: GI50) of the same compound?
**A.** 1.61 µM

**Q.** And the CC50 (SK-MEL-2; [20])?
**A.** 8.17 µM

**Q.** What about the TGI (SK-MEL-2; read-out: TGI) of the same compound?
**A.** 3.62 µM

**Q.** What about the GI50 (SK-MEL-2; read-out: pGI50 (converted)) of the same compound?
**A.** 1.62 µM

**Q.** And the CC50 (SK-MEL-2; [21])?
**A.** 8.13 µM

**Q.** And the TGI (SK-MEL-2; read-out: pTGI (converted))?
**A.** 3.63 µM

**Q.** What about the Activity (M14) of the same compound?
**A.** -77%

**Q.** What about the Activity (RXF 393) of the same compound?
**A.** -6%

**Q.** And the GI50 (NCI-H226 [18]; read-out: GI50)?
**A.** 2.38 µM

**Q.** What about the CC50 (NCI-H226 [18]; [20]) of the same compound?
**A.** > 100 µM

**Q.** And the TGI (NCI-H226 [18]; read-out: TGI)?
**A.** 7.7 µM

**Q.** And the GI50 (NCI-H226 [18]; read-out: pGI50 (converted))?
**A.** 2.4 µM

**Q.** And the CC50 (NCI-H226 [18]; [21])?
**A.** > 100 µM

**Q.** What about the TGI (NCI-H226 [18]; read-out: pTGI (converted)) of the same compound?
**A.** 7.76 µM

**Q.** And the Activity (786-0)?
**A.** 82%

**Q.** And the Activity (MOLT-4 [19])?
**A.** 97%
